In patent publication US5567704A, “R-enatiomerically pure hydroxylated xanthine compounds to treat baldness” (priority 1995, dated 1996):

Experiments:
nu/nu mice = experiment: nude mouse hair studies, topical application; assay type: in vivo
Text: This example illustrates nude mouse hair studies involving topical application of CT1501R. Six to eight week old, female, nu/nu mice from Charles River Laboratories were housed at Biosupport Research Support Services (Seattle, Wash.) in autoclaved micro isolator units with hyperchlorinated autoclaved water, irradiated rodent chow and kept under a laminar flow hood. Caging was changed weekly, and water was changed twice weekly. The mice were acclimated for 5 days before beginning each study.
The first topical formulation was prepared by adding CT1501R to a heated hydrophilic ointment (USP) at a 1% concentration, and allowed to solidify.
Nude mice were painted twice daily for 16 days with the first topical formulation of CT1501R on the left flank and another compound in the same base on the right flank with sterile applicators. Mice were handled under the laminar flow hood with applicator wearing face mask and sterile gloves. After 16 days, one mouse was sacrificed by cervical dislocation and skin biopsies were taken of the treated areas of the shoulder/flank and from the non-treated area of the dorsal pelvis (rump). Specimens were placed in 10% buffered formalin solution. Biopsies were sent to a veterinary dermopathologist for histopathology. Six weeks following treatment, a second mouse was euthanatized and biopsied the same as the first. Samples were sent for histopathology.
In a second experiment, topical application of CT1501R was performed along with a commercial topical minoxidil preparation (Rogaine®, Upjohn) that is approved for a hair growth indication. Five to six week old, female, nu/nu mice from Bantin and Kingman Universal were housed at Biosupport Research Support Services (Seattle, Wash.) in autoclaved micro isolator units with hyper chlorinated autoclaved water, irradiated rodent chow and kept under a laminar flow hood. Caging was changed weekly, and water was changed twice weekly. Mice were acclimated for 7 days before beginning study.
CT1501R, and two other compounds were prepared in a topical formulation of 60% ETOH, 10% water and 30% PEG along with vehicle only. Minoxidil was purchased as the commercial preparation Rogaine® from a local pharmacy. Rogaine® is sold in the same formulation base. Mice were identified by unique tail markings specific for each test article. Two mice per group were treated with CT1501R and another compound. One mouse was treated with each of vehicle and minoxidil. The mice were handled under the laminar flow hood with the applicator wearing face mask and sterile gloves. Each mouse was treated twice daily with a separate sterile applicator to avoid contamination of the solutions or the mice. All mice were applied a strip of appropriate test article along the center line of the back from the base of the skull to the base of the tail, approximately 1.5 cm wide. After 34 days all mice were euthanatized by overdose of halothane anesthesia. Skin biopsies were taken from each of the 7 mice over the nape of the neck between the scapulas (approximate size was 1×1.5 cm). All specimens were blotted on gauze to remove blood and fluids, affixed to a cut piece of wooden tongue depressor, and placed specimen side down in separately marked containers with 10% buffered formalin. Specimens were shipped to a veterinary dermatopathologist for qualitative histopathological determinations.

thymocytes = experiment: thymocyte costimulator assay (ConA and IL-1α or IL-2); assay type: cell-based, mice; settings: drug added two hours prior, FIG. 3
Protocol: A thymocyte costimulator assay is conducted to evaluate the inventive compounds to inhibit activation and proliferation of thymocytes caused by stimulation with Con A and interleukin-1 (IL-1), or […]. Thymuses are obtained from mice (e.g., female Balb/C mice) and the thymuses are removed and dissociated into culture media (e.g., RPMI 1640 without serum supplementation). The dissociated thymus tissue and cell suspension is transferred to centrifuge tubes and allowed to settle, washed with HBSS and resuspended in serum-supplemented culture media (e.g., RPMI 1640 with 10% fetal calf serum). Any contaminating red cells are lysed, and viable cells are resuspended and counted. Thymocytes are plated (e.g., 96-well plates at a density of 2×10^5 cells/well) and a stimulating agent, such as Con A, IL-1 (e.g., IL-1α) or IL-2 is added to the well. The cells are incubated for 4 days at 37° C. On the fourth day, the cells are pulsed with tritiated thymidine and cell proliferation determined. Inventive compounds are added at the time of stimulating agent addition.
CT1501R was added to the cells at the doses indicated two hours prior to activation with ConA and IL-1α or IL-2. Background counts were less than 200 cpm.

Balb/C mice = experiment: 5-fluorouracil (5-FU) induced bone marrow suppression in mice; assay type: in vivo, mouse
Protocol: This example illustrates the effect of CT1501R on 5-fluorouracil (5-FU) induced bone marrow suppression in mice. We determined if CT1501R influenced the time required for hematopoietic reconstitution following cytotoxic chemotherapy in a murine model. Female Balb/C mice (VAF, Charles River Laboratories, 6-8 wks of age approximately 17.3-18.5 g) were treated with 5-FU at adose of 200 mg/kg intraperitoneally (i.p.) in experiment 1 or […] in experiment 2. CT1501R or vehicle control was given at a dose of 100 μg/kg i.p. bid starting 1 day prior to 5-FU and was continued until the last mice were sacrificed on day 13 in experiment 1 and day 15 in experiment 2. Controls included mice treated with CT1501R or vehicle without 5-FU. Mice (4 per group) were sacrificed starting 2 days after 5-FU by cardiac puncture under halothane anesthesia followed by cervical dislocation and had total white blood cell counts and differential counts performed. Platelet counts were performed using phase-contrast microscopy in duplicate. Femurs were harvested and the number of granulocyte-macrophage colony forming cells (CFU-GM) per femur were measured using a standard assay (Terry Fox Laboratories, Vancouver, British Columbia) using pokeweed mitogen spleen conditioned medium as the growth factor. Each femur was plated separately in triplicate and the mean and means for each experimental point was calculated. Standard deviations used for statistical analysis were deviations of the mean number of colonies measured for each femur.
Experiment 2 was similar to experiment 1 with the following exceptions: (1) the dose of 5-FU was decreased to 185 mg/kg; (2) daily blood draws were performed between days 10 and 15; and (3) platelet counts were performed.

[1] = first experiment, 1% in hydrophilic ointment, twice daily 16 days

## C[C@@H](O)CCCCn1c(=O)c2c(ncn2C)n(C)c1=O [CT1501R, (R)-1-(5-hydroxyhexyl)-3,7-dimethylxanthine]
nu/nu mice; [1]
  hair follicles, histopathology: significantly more normal appearing hair follicles than the non treated sections
  hair shafts, histopathology: Numerous hair shafts were seen exiting the follicles in the treated sections
nu/nu mice; second experiment
  hair growth promotion compared with minoxidil: at least as good at promoting hair growth in this model as minoxidil
nu/nu mice; second experiment, group of CT1501R, minoxidil and control
  visual inspection of hair: most "hairy"
nu/nu mice; second experiment, topical twice daily, 34 days
  hair follicles, subjective histopathological examination: greatest concentration of hair folicles
thymocytes
  inhibition of thymocyte proliferation: inhibited thymocyte proliferation in a dose-response manner
Balb/C mice; 5-FU treated mice, FIG. 14
  mouse survival, Kaplan-Meier plot: improved survival
Balb/C mice; animals that did not receive 5-FU
  rise in ANC and CFU-GM/femur associated with vehicle injections: prevented both the rise in ANC and rise in CFU-GM/femur
Balb/C mice; during hematopoietic recovery
  increase in the number of CFU-GM/femur compared to control animals: approximately two-fold
Balb/C mice; experiment 1, day 13, vs vehicle control and day 0 animals
  CFU-GM/femur: significantly more CFU-GM/femur on day 13
Balb/C mice; experiment 1, day 13 after 5-FU
  mean ±SD ANC: 440±17 /mm^3
Balb/C mice; experiment 1, days 6 and 10
  WBC of 5-FU treated mice: significantly lower in vehicle treated controls than in CT1501R treated mice
Balb/C mice; experiment 2
  number of cells per femur: increased during hematopoietic recovery compared to control animals
Balb/C mice; experiment 2, FIG. 10
  WBC: significantly higher WBC's
Balb/C mice; experiment 2, FIG. 11
  platelet count nadir and rate of recovery: increased compared to vehicle control animals
Balb/C mice; experiment 2, FIG. 12
  neutrophil recovery: accelerated
Balb/C mice; mice without 5-FU, i.p. bid
  WBC and ANC: remained within 1 SD of control values
  adverse effects: no apparent adverse effects
